The results in this text go back to patent US12054498B2, “Heteroaromatic macrocyclic ether chemotherapeutic agents” (Nuvalent, Inc., priority 2020, dated 2024).

Bounds are passed on as bounds.

In one assay the target is T1, ALK-wt (Homo sapiens, UniProt Q9UM73).
T1 construct: purchased Carna 08-518
The experiment in a line: Biochemical kinase assay, ALK-wt kinase domain. The note with it: apparent inhibitory constant, Morrison equation; ATP 2 mM in substrate solution; read-out: ALK-wt Ki^app. The procedure: (§1) First, 250 nL of compound dissolved in DMSO (100-fold of the desired concentration) was dispensed into a 384-well plate. A 12.5 μL substrate solution containing ATP (2 mM) and fluorogenic phosphorylation substrate AQT0101 (26 μM for ALK and ROS1, AssayQuant) or AQT0104 (26 μM for TRKA, AssayQuant) in buffer (50 mM HEPES pH 7.5, 0.01% Brij-35, 0.5 mM EGTA, 10 mM MgCl2) was added and mixed thoroughly. Then, a 12.5 μL kinase solution containing ALK-wt (1.5 nM, Carna, 08-518), ALK ALK L1196M/G1202R (3 nM, SignalChem, A19-12NG), ROS1-wt (0.6 nM, Carna, 08-163), ROS1-G2032R (0.5 nM, SignalChem, R14-12BG), or TRKA-wt (1 nM, BPS Bio, 40280) kinase domains in buffer (50 nM HEPES pH 7.5, 0.01% Brij-35, 2% glycerol, 0.4 mg/mL BSA, 0.5 mM EGTA, and 10 mM MgCl2) was added and mixed thoroughly. The plate was sealed and read by SpectraMax Paradigm at λ=485 nm every 2 minutes for 120 minutes at 30° C. Initial rates of reaction (v) were calculated from the change in fluorescence intensity over time during the initial, linear portion of the reaction. Finally, apparent inhibitory constants (Ki^app) were determined from regression of v and I (inhibitor concentration) to Morrison Equation (E=enzyme concentration): […]

The target in the next assay is T2, ALK L1196M/G1202R (Homo sapiens, UniProt Q9UM73, G1202R/L1196M).
T2 construct: purchased SignalChem A19-12NG
Briefly: Biochemical kinase assay, ALK L1196M/G1202R kinase domain. The note with it: apparent inhibitory constant, Morrison equation; ATP 2 mM in substrate solution; read-out: ALK-L1196M-G1202R Ki^app. As for the experimental part:
as §1

The target of a further assay is T3, ROS1-G2032R (Homo sapiens, UniProt P08922, G2032R).
T3 construct: purchased SignalChem R14-12BG
Briefly: Biochemical kinase assay, ROS1-G2032R kinase domain. The note with it: apparent inhibitory constant, Morrison equation; ATP 2 mM in substrate solution; read-out: ROS1-G2032R Ki^app. The procedure: as §1, with “Then, a 12.5 μL kinase solution containing ALK-wt (1.5 nM, Carna, 08-518), ALK ALK L1196M/G1202R (3 nM, SignalChem, A19-12NG), ROS1-wt (0.6 nM, Carna, 08-163), ROS1-G2032R (0.5 nM, SignalChem, R14-12BG), or TRKA-wt (1 nM, BPS Bio, 40280) kinase domains in buffer (50 nM HEPES pH 7.5, 0.01% Brij-35, 2% glycerol, 0.4 mg/mL BSA, 0.5 mM EGTA, and 10 mM MgCl2) was added and mixed thoroughly.” left out

The next assay addresses T4, TRKA-wt (Homo sapiens, UniProt P04629).
T4 construct: or TRKA-wt (1 nM, BPS Bio, 40280) kinase domains in buffer; purchased BPS Bio 40280
The experiment in a line: Biochemical kinase assay, TRKA-wt kinase domain. The note with it: apparent inhibitory constant, Morrison equation; ATP 2 mM in substrate solution; read-out: TRKA-wt Ki^app. As for the experimental part: as §1

Assay [1] addresses T5, Ba/F3 cells CD74-ROS1 wild-type (wt) (Homo sapiens, UniProt P08922).
T5 construct: fusion of the C-terminus of ROS1 with the N-terminus of various partner proteins; host or cells: Ba/F3 (RIKEN), retroviral pMSCV-puro; the other entry of the earlier key: CD74 (P04233, HLA class II histocompatibility antigen gamma chain)
Briefly: Ba/F3 cell proliferation assay, CD74-ROS1 wild-type. The format is cell-based. The note with it: 72 hours, CellTiter-Glo. As for the experimental part: (§2) The virus was used to infect Ba/F3 cells (RIKEN) at multiplicity of infection=1 for 1 day. Infected cells were rescued in media (RPMI-1640 with 10% fetal bovine serum and 1% streptomycin and penicillin) supplemented with mouse IL-3 (10 ng/mL) for 2 days, and stable cell lines were selected by IL-3 withdrawal and puromycin (0.8 μg/mL) for 7 days. Monoclones were selected by single-cell dilution in IL-3-free medium containing puromycin (0.8 μg/mL).
(§3) Cell Proliferation Assay Stable cells were plated at 1,000 cells/well (40 μL) in a 384-well plate for 1 day.
(§4) Test compounds (40 nL) were then added in a 3-fold dilution series using the TECAN EVO200 liquid handler and incubated for 72 hours. Plates were equilibrated at room temperature for 15 minutes followed by addition of 40 μL CellTiter-Glo reagent (Promega).
(§5) Luminescence was measured on a plate reader. Half-maximal inhibitory concentration (IC50) was calculated from percent inhibition and inhibitor concentration using four-parameter logistic regression. […] (nd=not determined).

Assay [2] has as its target T6, Ba/F3 cells CD74-ROS1 G2032R (Homo sapiens, UniProt P08922, G2032R).
T6 construct: fusion of the C-terminus of ROS1 with the N-terminus of various partner proteins; host or cells: Ba/F3 (RIKEN), retroviral pMSCV-puro; the other entry of the earlier key: CD74 (P04233, HLA class II histocompatibility antigen gamma chain)
Briefly: Ba/F3 cell proliferation assay, CD74-ROS1 G2032R. The format is cell-based. The note with it: 72 hours, CellTiter-Glo. The procedure: as §2, §3, §4, §5
In general terms: In ATP-based viability assays light output follows the ATP content of the culture.

The target of assay [3] is T7, Ba/F3 cells EML4-ALK wt (variant 1) (Homo sapiens, UniProt Q9UM73).
T7 construct: echinoderm microtubule-associated protein-like 4 (EML4) gene and the ALK tyrosine kinase domain; host or cells: Ba/F3 (RIKEN), retroviral pMSCV-puro; the other entry of the earlier key: EML4 (Q9HC35, Echinoderm microtubule-associated protein-like 4)
Briefly: Ba/F3 cell proliferation assay, EML4-ALK wt (variant 1). In kind it is cell-based. The note with it: 72 hours, CellTiter-Glo.
Source text: (§6) Genes encoding CD74-ROS1 wild-type (wt), CD74-ROS1 G2032R, CD74-ROS1 S1986F, CD74-ROS1 L2026M, CD74-ROS1 D2033N, EML4-ALK wt (variant 1), EML4-ALK G1202R (variant 1), EML4-ALK L1196M/G1202R (variant 1), EML4-ALK G1202R/G1269A (variant 1), EML4-ALK G1202R/L1198F (variant 1), and TPM3-TRKA were synthesized at GeneRay, cloned into the retroviral construct pMSCV-puro (Biovector), and packaged into retroviral particles. The virus was used to infect Ba/F3 cells (RIKEN) at multiplicity of infection=1 for 1 day. Infected cells were rescued in media (RPMI-1640 with 10% fetal bovine serum and 1% streptomycin and penicillin) supplemented with mouse IL-3 (10 ng/mL) for 2 days, and stable cell lines were selected by IL-3 withdrawal and puromycin (0.8 μg/mL) for 7 days. Monoclones were selected by single-cell dilution in IL-3-free medium containing puromycin (0.8 μg/mL). Transformation of desired genes was confirmed by Sanger sequencing and western blot using the following antibodies: ROS1 (CST #3287), ALK (CST #3633), and pan-TRK (Abcam #76291).
as §3, §4, §5

For assay [4], the target named is T8, Ba/F3 cells EML4-ALK L1196M/G1202R (variant 1) (Homo sapiens, UniProt Q9UM73, G1202R/L1196M).
T8 construct: echinoderm microtubule-associated protein-like 4 (EML4) gene and the ALK tyrosine kinase domain; host or cells: Ba/F3 (RIKEN), retroviral pMSCV-puro; the other entry of the earlier key: EML4 (Q9HC35, Echinoderm microtubule-associated protein-like 4)
Briefly: Ba/F3 cell proliferation assay, EML4-ALK L1196M/G1202R (variant 1). The format is cell-based. The note with it: 72 hours, CellTiter-Glo.
Source text: as §6, §3, §4, §5

Another assay has as its target T9, Ba/F3 cells TPM3-TRKA (Homo sapiens, UniProt P04629).
T9 construct: host or cells: Ba/F3 (RIKEN), retroviral pMSCV-puro; the other entry of the earlier key: TPM3 (P06753, Tropomyosin alpha-3 chain)
The experiment in a line: Ba/F3 cell proliferation assay, TPM3-TRKA. The format is cell-based. The note with it: 72 hours, CellTiter-Glo, read-out: TPM3-NTRK1-wt IC50.
Source text: as §6, §3, §4, §5

Assay [5] concerns TPM3-NTRK1-wt IC50 / primary target IC50 (e.g. CD74-ROS1-wt). Briefly: TRKA selectivity in Ba/F3 cells (TRKA potency divided by primary target potency). The format is cell-based. The note with it: for TPM3-NTRK1-wt/CD74-ROS1-G2032R selectivity ratio: TRKA potency / CD74-ROS1-G2032R potency; for TPM3-NTRK1-wt/CD74-ROS1-wt selectivity ratio: TRKA potency / CD74-ROS1-wt potency; for TPM3-NTRK1-wt/EML4-ALK-L1196M-G1202R selectivity ratio: TRKA potency / EML4-ALK-L1196M-G1202R potency; for TPM3-NTRK1-wt/EML4-ALK-wt selectivity ratio: TRKA potency / EML4-ALK-wt potency. The procedure:
TRKA selectivity was calculated by dividing a compound's TRKA potency by its primary target potency (e.g. TPM3-NTRK1-wt IC50/CD74-ROS1-wt IC50). Compound selectivity can be interpreted by binning ratio values: bin A for very high selectivity, ratio >30-fold; bin B for high selectivity, ratio >10-fold; bin C for moderate selectivity, ratio ≥1; and bin D for low selectivity, ratio <1. […] (nd=not determined).

In the next assay the target is T10, ROS1-wt (Homo sapiens, UniProt P08922).
T10 construct: purchased Carna 08-163
Briefly: Biochemical kinase assay, ROS1-wt kinase domain. The note with it: apparent inhibitory constant, Morrison equation; ATP 2 mM in substrate solution; read-out: ROS1-wt Ki^app. As for the experimental part:
as §1, with “Then, a 12.5 μL kinase solution containing ALK-wt (1.5 nM, Carna, 08-518), ALK ALK L1196M/G1202R (3 nM, SignalChem, A19-12NG), ROS1-wt (0.6 nM, Carna, 08-163), ROS1-G2032R (0.5 nM, SignalChem, R14-12BG), or TRKA-wt (1 nM, BPS Bio, 40280) kinase domains in buffer (50 nM HEPES pH 7.5, 0.01% Brij-35, 2% glycerol, 0.4 mg/mL BSA, 0.5 mM EGTA, and 10 mM MgCl2) was added and mixed thoroughly.” left out

T8 sequence (Q9UM73 with tags, fused parts or gaps L1196M/G1202R): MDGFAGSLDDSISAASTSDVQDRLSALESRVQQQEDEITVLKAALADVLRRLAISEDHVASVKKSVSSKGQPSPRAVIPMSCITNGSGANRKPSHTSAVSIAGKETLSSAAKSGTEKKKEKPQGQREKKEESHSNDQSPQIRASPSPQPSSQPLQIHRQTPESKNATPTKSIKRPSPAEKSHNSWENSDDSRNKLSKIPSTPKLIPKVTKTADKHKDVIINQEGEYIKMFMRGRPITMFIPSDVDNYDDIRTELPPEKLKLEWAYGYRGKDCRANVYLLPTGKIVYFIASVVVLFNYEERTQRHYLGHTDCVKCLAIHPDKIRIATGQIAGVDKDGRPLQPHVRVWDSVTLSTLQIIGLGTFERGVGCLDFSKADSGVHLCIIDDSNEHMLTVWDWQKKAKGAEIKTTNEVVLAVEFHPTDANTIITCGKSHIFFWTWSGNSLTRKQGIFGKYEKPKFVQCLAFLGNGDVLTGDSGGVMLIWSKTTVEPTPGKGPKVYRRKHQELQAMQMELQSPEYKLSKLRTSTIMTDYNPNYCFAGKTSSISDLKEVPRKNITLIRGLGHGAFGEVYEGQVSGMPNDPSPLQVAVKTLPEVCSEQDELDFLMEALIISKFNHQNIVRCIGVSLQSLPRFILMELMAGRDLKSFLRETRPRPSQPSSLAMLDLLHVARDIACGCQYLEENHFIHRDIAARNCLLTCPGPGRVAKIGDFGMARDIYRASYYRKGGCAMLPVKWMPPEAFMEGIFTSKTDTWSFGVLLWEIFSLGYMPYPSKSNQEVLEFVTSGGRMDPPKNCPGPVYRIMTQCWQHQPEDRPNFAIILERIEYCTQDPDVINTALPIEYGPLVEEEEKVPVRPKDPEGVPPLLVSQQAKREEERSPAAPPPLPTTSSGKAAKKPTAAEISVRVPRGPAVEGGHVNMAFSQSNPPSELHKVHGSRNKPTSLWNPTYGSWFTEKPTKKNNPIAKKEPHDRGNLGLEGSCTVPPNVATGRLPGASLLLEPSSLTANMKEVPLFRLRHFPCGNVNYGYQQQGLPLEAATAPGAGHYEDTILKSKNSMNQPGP
T9 sequence (P04629 510-796 limits assumed): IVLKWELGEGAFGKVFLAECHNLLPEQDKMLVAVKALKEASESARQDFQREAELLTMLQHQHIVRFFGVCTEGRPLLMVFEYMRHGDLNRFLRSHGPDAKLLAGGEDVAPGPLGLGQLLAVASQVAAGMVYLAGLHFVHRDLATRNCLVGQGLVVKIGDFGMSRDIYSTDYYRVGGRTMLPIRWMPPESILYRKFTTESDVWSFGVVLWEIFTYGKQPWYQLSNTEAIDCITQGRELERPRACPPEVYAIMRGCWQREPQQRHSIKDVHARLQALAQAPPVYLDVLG
T6 sequence (P08922 1883-2347 G2032R limits assumed): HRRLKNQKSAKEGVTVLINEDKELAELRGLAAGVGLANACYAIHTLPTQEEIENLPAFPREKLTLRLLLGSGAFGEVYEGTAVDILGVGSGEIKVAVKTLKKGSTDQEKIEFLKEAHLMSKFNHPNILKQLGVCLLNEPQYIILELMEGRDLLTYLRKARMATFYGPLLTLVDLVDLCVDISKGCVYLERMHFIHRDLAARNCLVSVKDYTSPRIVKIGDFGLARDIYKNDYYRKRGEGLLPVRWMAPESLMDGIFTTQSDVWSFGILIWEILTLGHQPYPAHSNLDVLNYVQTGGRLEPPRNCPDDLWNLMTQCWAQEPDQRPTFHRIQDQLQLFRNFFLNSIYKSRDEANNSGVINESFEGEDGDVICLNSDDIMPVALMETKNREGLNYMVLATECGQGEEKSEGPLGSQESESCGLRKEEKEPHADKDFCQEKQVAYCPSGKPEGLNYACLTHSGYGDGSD
T4 sequence (P04629 510-781 limits assumed): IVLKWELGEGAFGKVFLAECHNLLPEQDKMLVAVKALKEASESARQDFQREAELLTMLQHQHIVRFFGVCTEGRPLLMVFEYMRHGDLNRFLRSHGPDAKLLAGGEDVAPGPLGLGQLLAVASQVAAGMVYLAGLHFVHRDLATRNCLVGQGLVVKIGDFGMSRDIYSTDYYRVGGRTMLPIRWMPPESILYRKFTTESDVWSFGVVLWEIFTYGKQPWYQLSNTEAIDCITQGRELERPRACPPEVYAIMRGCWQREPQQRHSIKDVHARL
T3 sequence (P08922 1945-2222 G2032R limits assumed): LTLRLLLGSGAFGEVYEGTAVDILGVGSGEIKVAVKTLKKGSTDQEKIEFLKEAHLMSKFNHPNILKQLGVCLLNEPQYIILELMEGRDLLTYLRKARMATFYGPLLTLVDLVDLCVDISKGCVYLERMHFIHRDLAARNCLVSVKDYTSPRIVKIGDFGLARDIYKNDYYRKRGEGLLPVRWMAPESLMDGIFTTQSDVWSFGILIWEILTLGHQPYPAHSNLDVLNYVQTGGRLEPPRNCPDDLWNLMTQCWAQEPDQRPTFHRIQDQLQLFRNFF
T5 sequence (P08922 1883-2347 limits assumed): as the sequence (P08922 1883-2347 G2032R limits assumed) above, with R150G counted along it
T2 sequence (Q9UM73 1116-1392 L1196M/G1202R limits assumed): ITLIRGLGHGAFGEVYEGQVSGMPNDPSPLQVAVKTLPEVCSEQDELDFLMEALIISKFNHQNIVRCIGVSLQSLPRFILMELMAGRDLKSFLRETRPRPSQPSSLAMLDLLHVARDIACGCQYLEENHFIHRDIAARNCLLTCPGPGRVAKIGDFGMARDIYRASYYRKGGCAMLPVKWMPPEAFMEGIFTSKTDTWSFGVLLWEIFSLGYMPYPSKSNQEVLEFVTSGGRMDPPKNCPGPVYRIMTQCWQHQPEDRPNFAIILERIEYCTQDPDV
T1 sequence (Q9UM73 1116-1392 limits assumed): as the sequence (Q9UM73 1116-1392 L1196M/G1202R limits assumed) above, with M81L, R87G counted along it
T7 sequence (Q9UM73 with tags, fused parts or gaps): as the sequence (Q9UM73 with tags, fused parts or gaps L1196M/G1202R) above, with M635L, R641G counted along it
T10 sequence (P08922 1945-2222 limits assumed): as the sequence (P08922 1945-2222 G2032R limits assumed) above, with R88G counted along it

For `CCn1ncc2c1-c1cnc(N)c(c1)O[C@H](C)c1cc(F)ccc1-c1cc(OC)nn1C2` [Example 89, (19R)-3-ethyl-16-fluoro-10-methoxy-19-methyl-20-oxa-3,4,8,9,23-pentaazapentacyclo[19.3.1.0^2,^6.0^8,^12.0^13,^18]pentacosa 1(24),2(6),4,9,11,13,15,17,21(25),22-decaen-22-amine], the Ki at ALK-wt is less than 50 nM; on ALK L1196M/G1202R, less than 50 nM; on ROS1-G2032R, less than 50 nM; on TRKA-wt it was 50 to 500 nM. For the same molecule, the IC50 lay in the range of 0.1 to 50 nM in assay [1]; 0.1 to 50 nM in assay [2]; 0.1 to 50 nM in assay [3]; 50 to 500 nM in assay [4]; 50 to 500 nM on Ba/F3 cells TPM3-TRKA. For the same molecule, the TPM3-NTRK1-wt/CD74-ROS1-G2032R selectivity ratio entry in [5] is “A (bin A for very high selectivity, ratio >30-fold)”. Further, in assay [5], the TPM3-NTRK1-wt/CD74-ROS1-wt selectivity ratio result is listed as “A (bin A for very high selectivity, ratio >30-fold)”. The TPM3-NTRK1-wt/EML4-ALK-L1196M-G1202R selectivity ratio entry in assay [5] is listed as “D (bin D for low selectivity, ratio <1)”. Also, the TPM3-NTRK1-wt/EML4-ALK-wt selectivity ratio entry in [5] is “B (bin B for high selectivity, ratio >10-fold)”.
For the molecule `Cc1nn(CC2CC2)c2c1Cc1nn(C)nc1-c1ccc(F)cc1[C@@H](CO)Oc1cc-2cnc1N` [Example 96, [(19S)-22-amino-3-(cyclopropylmethyl)-16-fluoro-5,10-hexaazapentacyclo[19.3.1.0^2,^6.0^8,^12.0^13,^18]pentacosa-1(24),2(6),4,8,11,13,15,17,21(25),22-decaen-19-yl]methanol], the Ki on ALK-wt is less than 50 nM; at ALK L1196M/G1202R, less than 50 nM; at ROS1-wt, less than 50 nM; on ROS1-G2032R it was less than 50 nM; at TRKA-wt, greater than 500 nM. Also, the figures for the IC50 (in assay [4]; on Ba/F3 cells TPM3-TRKA) were 50 to 500 nM and greater than 500 nM, respectively. Besides, the TPM3-NTRK1-wt/EML4-ALK-L1196M-G1202R selectivity ratio result in [5] is given as “A (bin A for very high selectivity, ratio >30-fold)”.
`CCn1ccc2c1-c1cnc(N)c(c1)O[C@H](C)c1cc(F)ccc1-c1nn(C)nc1C2` [Example 102, (19R)-3-ethyl-16-fluoro-10,19-dimethyl-20-oxa-3,9,10,11,23-pentaazapentacyclo[19.3.1.0^2,^6.0^8,^12.0^13,^18]pentacosa-1(24),2(6),4,8,11,13,15,17,21(25),22-decaen-22-amine]: the IC50 in assay [1] was 0.1 to 50 nM; in assay [2], 50 to 500 nM; in [3], 50 to 500 nM; in assay [4], greater than 500 nM; at Ba/F3 cells TPM3-TRKA, greater than 500 nM. For the same molecule, the TPM3-NTRK1-wt/CD74-ROS1-G2032R selectivity ratio entry in [5] is “B (bin B for high selectivity, ratio >10-fold)”. In assay [5], the TPM3-NTRK1-wt/CD74-ROS1-wt selectivity ratio result is on record as “A (bin A for very high selectivity, ratio >30-fold)”. Also, in [5], the TPM3-NTRK1-wt/EML4-ALK-L1196M-G1202R selectivity ratio entry is “C (bin C for moderate selectivity, ratio ≥1)”. Also, the TPM3-NTRK1-wt/EML4-ALK-wt selectivity ratio entry in assay [5] is “B (bin B for high selectivity, ratio >10-fold)”.

As usually defined, the IC50 is the point on the concentration scale where inhibition reaches its midpoint.
